Assay results: patent US9339032B2, “Heterocyclic compounds as pesticides” (Bayer Intellectual Property GmbH, priority 2010, dated 2016)
Like-named read-outs stand apart in the source and are kept apart here.

Tests used:
[1] = Determination of the log P values (formic acid method) by reverse-phase HPLC; type: physicochemical; conditions: reverse-phase HPLC column (C 18), reverse-phase column (C 18), acidic range (pH 3.4), 55° C.
Description: 1) Description of Method for Determination of the log P Values (Formic Acid Method)
The log P values given in the table were determined in accordance with EEC Directive 79/831 Annex V.A8 by HPLC (High Performance Liquid Chromatography) using a reverse-phase column (C 18). Temperature: 55° C.
Eluents for determination in the acidic range (pH 3.4):
Eluent A: acetonitrile+1 ml of formic acid/liter. Eluent B: water+0.9 ml of formic acid/liter.
Gradient: from 10% eluent A/90% eluent B to 95% eluent A/5% eluent B in 4.25 min.
The calibration was effected with unbranched alkan-2-ones (having 3 to 16 carbon atoms) with known log P values (log P values determined on the basis of the retention times by linear interpolation between two successive alkanones). The lambda max values were determined in the maxima of the chromatographic signals using the UV spectra from 200 nm to 400 nm.

[2] = system: green peach aphid (Myzus persicae); assay: Myzus test (spray treatment); type: in vivo; conditions: 500 g/ha, spray on Chinese cabbage leaf discs, after 6 days; 100% = all aphids killed
Description: Myzus Test (Spray Treatment) Solvent: 78 parts by weight of acetone • • 1.5 parts by weight of dimethylformamide Emulsifier: 0.5 part by weight of alkylaryl polyglycol ether To prepare an appropriate active ingredient preparation, 1 part by weight of active ingredient is mixed with the stated amounts of solvent and emulsifier, and the concentrate is diluted with emulsifier-containing water to the desired concentration. Discs of Chinese cabbage (Brassica pekinensis) infested by all stages of the green peach aphid (Myzus persicae) are sprayed with an active ingredient preparation of the desired concentration. After 6 days, the efficacy in % is determined. 100% means that all of the aphids have been killed; 0% means that none of the aphids have been killed.

Boophilus microplus = Boophilus microplus test (injection); type: in vivo; conditions: 20 μg/animal, injection into the abdomen, after 7 days; 100% = none of the ticks has laid fertile eggs
Description: The NMR spectra were • a) determined with a Bruker Avance 400 fitted with a flow probe head (volume 60 μl). The solvent used was CD3CN or d6-DMSO, with tetramethylsilane (0.00 ppm) used as a reference. • b) determined with a Bruker Avance II 600. The solvent used was CD3CN or d6-DMSO, with tetramethylsilane (0.00 ppm) used as a reference. The splitting of the signals was described as follows: s (singlet), d (doublet), t (triplet), q (quartet), quin (quintet), m (multiplet). Boophilus Microplus Test (Injection)
Solvent: dimethyl sulphoxide
To prepare an appropriate active ingredient formulation, 10 mg of active ingredient are mixed with 0.5 ml of solvent and the concentrate is diluted with solvent to the desired concentration. The active ingredient solution is injected into the abdomen (Boophilus microplus), and the animals are transferred into dishes and stored in a climate-controlled room. The activity is assessed by laying of fertile eggs.
After 7 days, the efficacy in % is determined. 100% means that none of the ticks has laid any fertile eggs.

Compound	efficacy in % (aphids killed) [2]	chromatographic logP ([1]; table, read-out: logP (HCOOH))	also measured
Cc1nc(-c2cccnc2)sc1NC(=O)CC(F)(F)F [Compound 1, 3,3,3-Trifluoro-N-[4-methyl-2-(pyridin-3-yl)-1,3-thiazol-5-yl]propanamide]	80%		chromatographic logP ([1]; read-out: log P (HCOOH)): 1.47; efficacy in % (laying of fertile eggs) (Boophilus microplus): 100%
Cc1nc(-c2cccnc2)sc1NC(=O)Cc1ncccn1 [Compound 2, N-[4-Methyl-2-(pyridin-3-yl)-1,3-thiazol-5-yl]-2-(pyrimidin-2-yl)acetamide]	100%		chromatographic logP ([1]; read-out: log P (HCOOH)): 0.74
Cc1nc(-c2cccnc2)sc1S(=O)(=O)N(C)C [Compound 3]	100%		chromatographic logP ([1]; read-out: log P (HCOOH)): 1.86
CN(C)S(=O)(=O)NC(=O)c1cnn(-c2cccnc2)c1 [Compound 4, N-(Dimethylsulphamoyl)-1-(pyridin-3-yl)-1H-pyrazole-4-carboxamide]	90%		chromatographic logP ([1]; read-out: log P (HCOOH)): 1.03
O=S(=O)(Nc1cnn(-c2cccnc2)c1)C(F)F [Compound 5, 1,1-Difluoro-N-[1-(pyridin-3-yl)-1H-pyrazol-4-yl]methanesulphonamide]			chromatographic logP ([1]; read-out: log P (HCOOH)): 1.01
Cc1nn(-c2cccnc2)cc1C(=O)NS(=O)(=O)c1ccccc1 [Compound 6]	100%	1.71	
CN(C)S(=O)(=O)NC(=O)c1cnn(-c2cncc(F)c2)c1 [Compound 7]	100%	1.42	
O=C(NS(=O)(=O)C1CC1)c1cnn(-c2cncc(F)c2)c1 [Compound 8]	90%	1.28	
O=C(NS(=O)(=O)c1ccccc1)c1cnn(-c2cccnc2)c1 [Compound 9]		1.39	
Cc1nc(-c2cccnc2)sc1S(=O)(=O)NCc1ncccn1 [Compound 10]		1.35	
O=C(NS(=O)(=O)C1CC1)c1cnn(-c2cccnc2)c1 [Compound 11]		0.83	
Cc1nc(-c2cccnc2)sc1C(=O)NS(C)(=O)=O [Compound 12]		0.54	
Cc1nn(-c2cccnc2)cc1C(=O)NS(C)(=O)=O [Compound 13]		0.81	
COCCNS(=O)(=O)c1sc(-c2cccnc2)nc1C [Compound 14]		1.51	
O=C(NS(=O)(=O)C(F)(F)F)c1cnn(-c2cccnc2)c1 [Compound 15]		0.67	
CS(=O)(=O)NC(=O)c1cnn(-c2cccnc2)c1 [Compound 16]		0.41	
O=C(NS(=O)(=O)c1ccccc1)c1cnn(-c2cncc(F)c2)c1 [Compound 17]		1.81	
CS(=O)(=O)NC(=O)c1cnn(-c2cncc(F)c2)c1 [Compound 18]		0.9	
CCS(=O)(=O)NC(=O)c1cnn(-c2cccnc2)c1 [Compound 19]		0.69	
Cc1nc(-c2cncc(F)c2)sc1C(=O)NS(C)(=O)=O [Compound 20]		1.08	
CCS(=O)(=O)NC(=O)c1cnn(-c2cncc(F)c2)c1 [Compound 21]		1.24	
CCOC(=O)c1cnn(-c2cccnc2)c1 [Ethyl 1-(pyridin-3-yl)-1H-pyrazole-4-carboxylate]			chromatographic logP ([1]; read-out: log P (HCOOH)): 1.55
